One block for each compound: values may come before it.
What was measured:
Akt (Ser473) = test: Western blot of Akt phosphorylation in H1703 cells; assay type: cell-based, human; settings: for phosphorylation of Akt at Ser473: treated for 1 hr, western blot (FIG. 5B)
Procedure: (§1) We dissolved drugs (Iressa and Gleevec) in DMSO to yield 10 mM stock solution and stored at −20° C.

PDGFRα = molecular target: T1, PDGFRα (Homo sapiens, UniProt P16234); test: Western blot of PDGFRα phosphorylation in H1703 cells; assay type: cell-based
T1 construct: PDGFRα expression is highly restricted to H1703 cell line; endogenous in cells; host or cells: H1703 human NSCLC cell line (ATCC)
Procedure: as §1

[1] = test system: phosphotyrosine signaling in H1703 cells; test: SILAC LC-MS/MS phosphotyrosine analysis of H1703 cells; assay type: cell-based, human; settings: 1 μM Gleevec for 3 hours
From the text: We performed phosphopeptide immunoprecipitation from different cell lines as described previously (Rush, J., Moritz, A., Lee, K. A., Guo, A., Goss, V. L., Spek, E. J., Zhang, H., Zha, X. M., Polakiewicz, R. D., and Comb, M. J. (2005). Immunoaffinity profiling of tyrosine phosphorylation in cancer cells. Nat. Biotechnol. 23, 94-101) using the PhosphoScan Kit (P-Tyr-100) from CST.
We split equal number of H1703 cells and grew them in either light or heavy SILAC medium (RPMI medium lacking arginine and lysine supplemented with either regular L-Lysine:HCl and L-Arginine:HCL (Sigma) for light medium, or supplemented with L-arginine:HCl (U-13 C6,98%) and L-lysine:2HCl (U-13C6,98%; U-15N2,98%) (Cambridge Isotope Laboratories) for heavy medium. The medium also contained 10% FBS, and penicillin/streptomycin. We grew cells for at least five generations to reach 100 million cells in each medium type. We then treated cells grown in the heavy medium with 1 μM Gleevec for 3 hours. We lysed both treated and control cells in Urea lysis buffer and combined them for phosphopeptide immunoprecipitation experiment as described above.
We LC-MS analyzed each phosphopeptide sample in duplicate. We packed a fused silica microcapillary column (125 μm×18 cm) with C18 reverse-phase resin (Magic C18AQ, 5 μm particles, 200 Å pore size, Michrom Bioresources, Auburn, Calif.). We loaded samples (4 μL) onto this column with an autosampler (LC Packings Famos, San Francisco, Calif.) and eluted them into the mass spectrometer by a 55-min linear gradient of 7 to 30% acetonitrile in 0.1% formic acid. We delivered the gradient at approximately 600 nl/min using a binary HPLC pump (Agilent 1100, Palo Alto, Calif.) with an in-line flow splitter. We mass analyzed eluting peptide ions with a hybrid linear ion trap-7 Tesla ion cyclotron resonance Fourier transform instrument (LTQ-FT, Thermo Electron, San Jose, Calif.). We employed a top-seven method, whereby we collected 7 data-dependent MS/MS scans in the linear ion trap based on measurements made during the previous MS survey scan in the ICR cell, with the linear ion trap and the Fourier transform instrument operating concurrently. We performed MS scans at 375-1800 m/z with an automatic gain control (AGC) target of 3×10^6 and a mass resolution of 10^5. For MS/MS the AGC was 4000, the dynamic exclusion time was 25 s, and singly-charged ions were rejected by charge-state screening.
We assigned peptide sequences to MS/MS spectra using Sequest software (v.27, rev.12) and a composite forward/reverse IPI human protein database. Search parameters were: trypsin as protease; 1.08 Da precursor mass tolerance; static modification on cysteine (+57.02146, carboxamidomethylation); and dynamic modifications on serine, threonine and tyrosine (+79.96633 Da, phosphorylation), lysine (+8.01420, ^13C6 ^15N2), arginine (+6.02013, ^13C6) and methionine (+15.99491, oxidation). We used a target/decoy database approach to establish appropriate score-filtering criteria such that the estimated false-positive assignment rate was <1%. In addition to exceeding charge-dependent XCorr thresholds (for z=2, XCorr≧2.2; for z=3, XCorr≧3.3; for z=4, XCorr≧3.5), we required assignments to contain phosphotyrosine, to have a mass accuracy of −5 to +25 ppm, and to contain either all-light or all-heavy lysine/arginine residues. We further evaluated assignments passing these criteria using a custom quantification program Vista (Bakalarski, C. E., Elias, J. E., Villen, J. Haas, W., Gerber, S. A., Everley, P. A., and Gygi, S. P. (2008) The Impact of Peptide Abundance and Dynamic Range on Stable-Isotope-Based Quantitative Proteomic Analyses. J. Proteome Res. 10.1021/pr800333e) to calculate peak areas and ultimately a relative abundance between heavy and light forms of each peptide.

H1703 cells = test: Cell growth inhibition assay (MTT/MTS), H1703; assay type: cell-based, human; settings: 72 hr (FIG. 5C)
Procedure: Briefly, we seeded 1000 to 5000 cells onto flat-bottomed 96-well plates and grew them in complete medium with 10% FBS. After 24 hours, we changed the cell medium to 100 μl complete growth medium with 10% FBS containing various concentrations of Gleevec, and incubated the cells for an additional 72 hours. We applied each drug concentration to triplicate well of cells. At the end of the incubation, we added 20 μl of CellTiter 96 AQUESOUS One solution to each well, and incubated the plate for 1-4 hours. We read absorbance at 490 nm using a Titan Multiskan Ascent microplate reader (Titertek Instrument). We expressed growth inhibition as mean±SD value of percentage of absorbance reading from treated cells vs untreated cells. We repeated the assay at least three times. We calculated IC50 with the use of OriginPro 6.1 software (OriginLab, Northampton, Mass.).

Stat3 = test: Western analysis with site and phosphorylation-specific antibodies, Stat3; assay type: cell-based, human; settings: H1703 cells, 1 μM for 3 hours, western (FIG. 9E)
Procedure: as §1

SHP2 = test: Western analysis with site and phosphorylation-specific antibodies, SHP2; assay type: cell-based, human; settings: H1703 cells, 1 μM for 3 hours, western (FIG. 9E)
Procedure: as §1

H1703 xenograft = test: H1703 mouse xenograft; assay type: in vivo, NCR nude mice
Procedure: We purchased four to six weeks female NCR nude mice from Taconic ande used them to generate H1703 xenograft. We carried out experiments under an IACUC approved protocol. We followed institutional guidelines for the proper and humane use of animals in research. We generated tumors by injecting 10 mice with 5×10^6H1703 cells and reconstituted basement membrane Matrigel (BD Biosciences) with 1:1 ratio in PBS. Drug treatment started when the tumor was about 1 mm×1 mm size. 5 mice were treated with Gleevec at 50 mg/kg/day by oral gavage using a ball ended feeding needle. 5 mice were untreated. […] We measured the average tumor diameter using caliper in both control and treated groups of mice.

A549 cells = settings: previous report (Zhang et al. 2003); cited from earlier work
p44/42MAPK = test: Western blot of p44/42MAPK phosphorylation in H1703 cells; assay type: cell-based, human; settings: 100 nM Imatinib, 1 hour (FIG. 9B)
Procedure: as §1

PLCγ1 = test: Western analysis with site and phosphorylation-specific antibodies, PLCγ1; assay type: cell-based, human; settings: H1703 cells, 1 μM for 3 hours, western (FIG. 9E)
Procedure: as §1

[2] = 100 nM Imatinib, 1 hour (FIG. 9B)
[3] = indicated amounts of Imatinib mesylate, 1 hour (FIG. 9B)

T1 sequence (P16234 24-1089): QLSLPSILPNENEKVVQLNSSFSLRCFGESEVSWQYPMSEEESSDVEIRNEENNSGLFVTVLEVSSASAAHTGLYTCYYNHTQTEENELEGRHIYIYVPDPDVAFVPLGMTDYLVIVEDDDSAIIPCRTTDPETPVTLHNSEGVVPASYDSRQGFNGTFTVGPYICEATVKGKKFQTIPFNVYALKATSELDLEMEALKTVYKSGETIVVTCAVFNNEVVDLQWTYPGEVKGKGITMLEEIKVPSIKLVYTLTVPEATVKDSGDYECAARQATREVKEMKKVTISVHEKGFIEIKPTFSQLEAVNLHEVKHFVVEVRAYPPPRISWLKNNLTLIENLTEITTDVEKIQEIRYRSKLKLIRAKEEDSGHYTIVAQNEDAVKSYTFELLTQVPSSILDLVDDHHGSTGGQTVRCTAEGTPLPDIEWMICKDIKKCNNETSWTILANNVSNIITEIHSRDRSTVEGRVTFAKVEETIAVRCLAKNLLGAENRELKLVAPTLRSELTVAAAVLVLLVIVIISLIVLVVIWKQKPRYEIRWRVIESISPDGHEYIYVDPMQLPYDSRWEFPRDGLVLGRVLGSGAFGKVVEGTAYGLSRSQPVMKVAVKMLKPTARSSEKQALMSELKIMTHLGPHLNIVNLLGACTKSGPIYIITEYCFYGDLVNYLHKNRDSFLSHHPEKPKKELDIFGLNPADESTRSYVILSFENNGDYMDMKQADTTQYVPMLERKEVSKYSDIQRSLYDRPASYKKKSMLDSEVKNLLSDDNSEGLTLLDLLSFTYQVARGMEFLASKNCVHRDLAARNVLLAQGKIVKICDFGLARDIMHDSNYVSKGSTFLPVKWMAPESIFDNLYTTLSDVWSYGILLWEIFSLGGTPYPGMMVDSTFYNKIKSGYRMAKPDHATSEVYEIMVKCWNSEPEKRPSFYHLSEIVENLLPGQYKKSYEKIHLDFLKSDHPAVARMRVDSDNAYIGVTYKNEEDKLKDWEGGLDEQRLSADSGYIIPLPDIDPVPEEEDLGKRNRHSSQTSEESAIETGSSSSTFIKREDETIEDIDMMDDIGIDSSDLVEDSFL

Compound: COc1cc2ncnc(Nc3ccc(F)c(Cl)c3)c2cc1OCCCN1CCOCC1 [Gefitinib]
- phosphorylation of Akt at Ser473 (Akt (Ser473)): not by Gefitinib

- PDGFRα phosphorylation (PDGFRα; [2]): almost complete inhibition
- phosphorylation of PDGFRα (PDGFRα; 1 μM for 3 hours, western (FIG. 9E)): decreased phosphorylation
- PDGFR α phosphorylation (Tyr754) (PDGFRα; [3]): dose-dependent inhibition
Compound: Cc1ccc(NC(=O)c2ccc(CN3CCN(C)CC3)cc2)cc1Nc1nccc(-c2cccnc2)n1 [Imatinib]
- phosphorylation of SMS2 [1]: inhibited phosphorylation
- phosphorylation of the ras effector Rinl [1]: inhibited phosphorylation
- tyrosine phosphorylation of SHP-2 [1]: suppressed tyrosine phosphorylation
- tyrosine phosphorylation of Stat5 [1]: suppressed tyrosine phosphorylation
- tyrosine phosphorylation of phospholipase Cg 1 [1]: suppressed tyrosine phosphorylation
- tyrosine phosphorylation of proteins regulating the cytoskeleton and actin reorganization and signaling molecules involved in membrane recycling and endocytosis [1]: suppressed
- tyrosine phosphorylation of the regulatory subunit of PI3K [1]: suppressed tyrosine phosphorylation
- Akt phosphorylation (Akt (Ser473); [2]): almost complete inhibition
- Akt phosphorylation (Ser473) (Akt (Ser473); [3]): dose-dependent inhibition
- phosphorylation of Akt at Ser473 (Akt (Ser473)): blocked
- cell growth / sensitivity to Imatinib (H1703 cells): sensitivity profile similar to K562 cells
- cell growth / sensitivity to Imatinib (H1703 cells; listed as Imatinib mesylate): inhibits cell growth
- phosphorylation of Stat3 (Stat3): not changed
- phosphorylation of SHP2 (SHP2): decreased phosphorylation
- tumor growth (H1703 xenograft; H1703 xenograft in nude mice, 50 mg/kg daily, 2 week period, vs vehicle): immediate and profound effects on tumor growth
- tumor growth (H1703 xenograft; H1703 xenograft, after 7 days of Imatinib treatment at 50 mg/kg (FIG. 9F)): blocks tumor growth
- sensitivity to Imatinib (A549 cells): showed sensitivity
- p44/42MAPK phosphorylation (p44/42MAPK): little if any effect
- phosphorylation of PLCγ1 (PLCγ1): decreased phosphorylation

Source: patent publication US20100216718A1, “Cancer Classification and Methods of Use” (priority 2007, published 2010)
